The source of these data is patent publication US9393271B2, “GHRH agonists for islet cell transplantation and function and the treatment of diabetes” (UNIVERSITY OF MIAMI, priority 2012, dated 2016).

Assay [1] concerns GH level. In words: In vivo endocrine activity (GH release), subcutaneous administration. Conditions: rat; for GH releasing potency relative to JI-38 (=1): s.c. injection. The method, then: Subcutaneous Administration. Adult male rats were used and anesthetized with pentobarbital (6 mg/100 g, b.w.), by i.p. injection. […] Blood samples were taken from the jugular vein 5, 15 and/or 30 minutes after the injection. The blood samples were centrifuged, plasma was removed and the GH level was measured by ELISA. The results are summarized in terms of potency in Table 9.

For assay [2], the target named is T1, GHRH receptor (human pituitary membrane homogenates) (Homo sapiens, UniProt Q02643).
T1 sequence (Q02643 23-423): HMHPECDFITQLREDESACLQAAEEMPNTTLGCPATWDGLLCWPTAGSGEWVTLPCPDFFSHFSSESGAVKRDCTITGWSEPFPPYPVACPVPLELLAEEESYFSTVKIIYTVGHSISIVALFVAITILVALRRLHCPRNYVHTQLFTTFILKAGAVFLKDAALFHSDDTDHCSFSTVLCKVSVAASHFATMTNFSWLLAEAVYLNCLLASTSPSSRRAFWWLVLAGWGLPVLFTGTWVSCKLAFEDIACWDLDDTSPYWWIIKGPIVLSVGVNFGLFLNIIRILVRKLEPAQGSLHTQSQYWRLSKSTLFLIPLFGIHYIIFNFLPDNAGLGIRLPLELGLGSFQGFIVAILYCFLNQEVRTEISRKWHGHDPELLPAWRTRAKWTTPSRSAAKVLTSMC
In words: GHRH receptor binding, ligand competition with 125I-labeled JV-1-42 (Table 7). The note with it: JI-38 = 1. Details: Normal human pituitaries were purchased from the National Hormone and Peptide Program; tissue National Hormone and Peptide Program (A. F. Parlow, Harbor-UCLA Medical Center, Torrance, Calif.); host or cells: normal human pituitary, membrane fraction / homogenate.

Non-standard residues stand in square brackets, D forms with d. Residues, ends and D or L forms follow the SMILES beside them. No end group written: not given here. *: point of attachment. Phe(F5) = N[C@@H](Cc1c(F)c(F)c(F)c(F)c1F)C(=O)O; Desaminotyrosyl = O=C(CCc1ccc(O)cc1)*; NMeY = CN[C@@H](Cc1ccc(O)cc1)C(=O)O; Agmatine = N=C(N)NCCCCN*; Nle = CCCC[C@H](N)C(=O)O; Orn = NCCC[C@H](N)C(=O)O; dAbu = CC[C@@H](N)C(=O)O; Abu = CC[C@H](N)C(=O)O; Aoc = NCCCCCCCC(=O)O; GABA = NCCCC(=O)O

With `CCCC[C@H](NC(=O)[C@@H](NC(=O)[C@H](CC(=O)O)NC(=O)[C@H](CCC(N)=O)NC(=O)[C@H](CC(C)C)NC(=O)[C@H](CC(C)C)NC(=O)[C@H](CCCN)NC(=O)[C@H](CCCNC(=N)N)NC(=O)[C@H](C)NC(=O)[C@H](CO)NC(=O)[C@H](CC(C)C)NC(=O)[C@H](CCC(N)=O)NC(=O)[C@H](CC)NC(=O)[C@H](CC(C)C)NC(=O)[C@@H](NC(=O)[C@H](CCCN)NC(=O)[C@H](CCCNC(=N)N)NC(=O)[C@H](Cc1ccc(O)cc1)NC(=O)[C@H](CO)NC(=O)[C@H](CC(N)=O)NC(=O)[C@@H](NC(=O)[C@H](Cc1ccccc1)NC(=O)[C@@H](NC(=O)[C@H](C)NC(=O)[C@H](CC(=O)O)NC(=O)[C@@H](C)NC(=O)[C@H](Cc1ccc(O)cc1)NC)[C@@H](C)CC)[C@@H](C)O)C(C)C)[C@@H](C)CC)C(=O)N[C@@H](CC(=O)O)C(=O)N[C@@H](CCCNC(=N)N)C(=O)NC` [Peptide P-27409, [N—Me-Tyr^1, D-Ala^2, Orn^12, Abu^15, Orn^21, Nle^27, Asp^28]hGHRH(1-29)NH—CH3] (H-[NMeY][dA]DAIFTNSYR[Orn]VL[Abu]QLSAR[Orn]LLQDI[Nle]DR-NHMe), the “Stimulation of growth hormone levels after s.c. administration (comparison in words)” value in assay [1] (s.c.) is listed as “stimulated greater growth hormone levels than hGHRH or JI-38”. Moreover, in assay [2], the “Relative affinitiy (Binding potency) vs JI-38” value (“Relative affinitiy” for short) turned out to be 4.10.

Take “[N—Me-Tyr^1, Gln^8, Orn^12, Abu^15, Orn^21, Nle^27, Agm^29]hGHRH(1-29) ([NMeY]ADAIFTQSYR[Orn]VL[Abu]QLSAR[Orn]LLQDI[Nle]S[Agmatine]) [Peptide P-20373]”: the “GH releasing potency relative to JI-38 (=1)” value in assay [1] (15 min after) came out at 0.23; in assay [1] (30 min after) it was 0.88.

Turning to `CCCC[C@H](NC(=O)[C@@H](NC(=O)[C@H](CC(=O)O)NC(=O)[C@H](CCC(N)=O)NC(=O)[C@H](CC(C)C)NC(=O)[C@H](CC(C)C)NC(=O)[C@H](CCCN)NC(=O)[C@H](CCCNC(=N)N)NC(=O)[C@H](C)NC(=O)[C@H](CO)NC(=O)[C@H](CC(C)C)NC(=O)[C@H](CCC(N)=O)NC(=O)[C@H](CC)NC(=O)[C@H](CC(C)C)NC(=O)[C@@H](NC(=O)[C@H](CCCN)NC(=O)[C@H](CCCNC(=N)N)NC(=O)[C@H](Cc1ccc(O)cc1)NC(=O)[C@H](CO)NC(=O)[C@H](CC(N)=O)NC(=O)[C@@H](NC(=O)[C@H](Cc1ccccc1)NC(=O)[C@@H](NC(=O)[C@H](C)NC(=O)[C@H](CC(=O)O)NC(=O)[C@@H](CC)NC(=O)CCc1ccc(O)cc1)[C@@H](C)CC)[C@@H](C)O)C(C)C)[C@@H](C)CC)C(=O)N[C@@H](CO)C(=O)N[C@@H](CCCNC(=N)N)C(=O)NCCCC(N)=O` [Peptide P-25504, [Dat^1, D-Abu^2, Orn^12, Abu^15, Orn^21, Nle^27, Gab^30]hGHRH(1-30)NH2] (Desaminotyrosyl-[dAbu]DAIFTNSYR[Orn]VL[Abu]QLSAR[Orn]LLQDI[Nle]SR[GABA]-NH2), in assay [2], the “Relative affinitiy” value is 3.02.

Consider `CCCC[C@H](NC(=O)[C@@H](NC(=O)[C@H](CC(=O)O)NC(=O)[C@H](CCC(N)=O)NC(=O)[C@H](CC(C)C)NC(=O)[C@H](CC(C)C)NC(=O)[C@H](CCCN)NC(=O)[C@H](CCCNC(=N)N)NC(=O)[C@H](C)NC(=O)[C@H](CO)NC(=O)[C@H](CC(C)C)NC(=O)[C@H](CCC(N)=O)NC(=O)[C@H](CC)NC(=O)[C@H](CC(C)C)NC(=O)[C@@H](NC(=O)[C@H](CCCN)NC(=O)[C@H](CCCNC(=N)N)NC(=O)[C@H](Cc1ccc(O)cc1)NC(=O)[C@H](CO)NC(=O)[C@H](CC(N)=O)NC(=O)[C@@H](NC(=O)[C@H](Cc1c(F)c(F)c(F)c(F)c1F)NC(=O)[C@@H](NC(=O)[C@H](C)NC(=O)[C@H](CC(=O)O)NC(=O)[C@@H](C)NC(=O)[C@H](Cc1ccc(O)cc1)NC)[C@@H](C)CC)[C@@H](C)O)C(C)C)[C@@H](C)CC)C(=O)N[C@@H](CC(=O)O)C(=O)NCCCCNC(=N)N` [Peptide P-20359, [N—Me-Tyr^1, D-Ala^2, Fpa5^6, Orn^12, Abu^15, Orn^21, Nle^27, Asp^28, Agm^29]hGHRH(1-29)] (H-[NMeY][dA]DAI[Phe(F5)]TNSYR[Orn]VL[Abu]QLSAR[Orn]LLQDI[Nle]D-Agmatine), for which, in assay [2], the “Relative affinitiy” value was 1.43.

As for `CCCC[C@H](NC(=O)[C@@H](NC(=O)[C@H](CC(=O)O)NC(=O)[C@H](CCC(N)=O)NC(=O)[C@H](CC(C)C)NC(=O)[C@H](CC(C)C)NC(=O)[C@H](CCCN)NC(=O)[C@H](CCCNC(=N)N)NC(=O)[C@H](C)NC(=O)[C@H](CO)NC(=O)[C@H](CC(C)C)NC(=O)[C@H](CCC(N)=O)NC(=O)[C@H](CC)NC(=O)[C@H](CC(C)C)NC(=O)[C@@H](NC(=O)[C@H](CCCN)NC(=O)[C@H](CCCNC(=N)N)NC(=O)[C@H](Cc1ccc(O)cc1)NC(=O)[C@H](CO)NC(=O)[C@@H](NC(=O)[C@@H](NC(=O)[C@H](Cc1ccccc1)NC(=O)[C@@H](NC(=O)[C@H](C)NC(=O)[C@H](CC(=O)O)NC(=O)[C@@H](C)NC(=O)[C@H](Cc1ccc(O)cc1)NC)[C@@H](C)CC)[C@@H](C)O)[C@@H](C)O)C(C)C)[C@@H](C)CC)C(=O)N[C@@H](CC(=O)O)C(=O)N[C@@H](CCCNC(=N)N)C(=O)NC` [Peptide P-27410, [N—Me-Tyr^1, D-Ala^2, Thr^8, Orn^12, Abu^15, Orn^21, Nle^27, Asp^28]hGHRH(1-29)NH—CH3] (H-[NMeY][dA]DAIFTTSYR[Orn]VL[Abu]QLSAR[Orn]LLQDI[Nle]DR-NHMe), the “Relative affinitiy” value in assay [2] turned out to be 5.24.

As for `CCCC[C@H](NC(=O)[C@@H](NC(=O)[C@H](CC(=O)O)NC(=O)[C@H](CCC(N)=O)NC(=O)[C@H](CC(C)C)NC(=O)[C@H](CC(C)C)NC(=O)[C@H](CCCN)NC(=O)[C@H](CCCNC(=N)N)NC(=O)[C@H](C)NC(=O)[C@H](CO)NC(=O)[C@H](CC(C)C)NC(=O)[C@H](CCC(N)=O)NC(=O)[C@H](CC)NC(=O)[C@H](CC(C)C)NC(=O)[C@@H](NC(=O)[C@H](CCCN)NC(=O)[C@H](CCCNC(=N)N)NC(=O)[C@H](Cc1ccc(O)cc1)NC(=O)[C@H](CO)NC(=O)[C@H](CC(N)=O)NC(=O)[C@@H](NC(=O)[C@H](Cc1ccccc1)NC(=O)[C@@H](NC(=O)[C@H](C)NC(=O)[C@H](CC(=O)O)NC(=O)[C@@H](C)NC(=O)CCc1ccc(O)cc1)[C@@H](C)CC)[C@@H](C)O)C(C)C)[C@@H](C)CC)C(=O)N[C@@H](CC(=O)O)C(=O)N[C@@H](CCCNC(=N)N)C(=O)NCCCCCCCC(N)=O` [Peptide P-21300, [Dat^1, D-Ala^2, Orn^12, Abu^15, Orn^21, Nle^27, Asp^28, Amc^30]hGHRH(1-30)NH2] (Desaminotyrosyl-[dA]DAIFTNSYR[Orn]VL[Abu]QLSAR[Orn]LLQDI[Nle]DR[Aoc]-NH2), the “Relative affinitiy” value in assay [2] was determined as 1.20.

`CCCC[C@H](NC(=O)[C@@H](NC(=O)[C@H](CC(=O)O)NC(=O)[C@H](CCC(N)=O)NC(=O)[C@H](CC(C)C)NC(=O)[C@H](CC(C)C)NC(=O)[C@H](CCCN)NC(=O)[C@H](CCCNC(=N)N)NC(=O)[C@H](C)NC(=O)[C@H](CO)NC(=O)[C@H](CC(C)C)NC(=O)[C@H](CCC(N)=O)NC(=O)[C@H](CC)NC(=O)[C@H](CC(C)C)NC(=O)[C@@H](NC(=O)[C@H](CCCN)NC(=O)[C@H](CCCNC(=N)N)NC(=O)[C@H](Cc1ccc(O)cc1)NC(=O)[C@H](CO)NC(=O)[C@H](CC(N)=O)NC(=O)[C@@H](NC(=O)[C@H](Cc1ccccc1)NC(=O)[C@@H](NC(=O)[C@H](C)NC(=O)[C@H](CC(=O)O)NC(=O)[C@@H](C)NC(=O)[C@H](Cc1ccc(O)cc1)NC)[C@@H](C)CC)[C@@H](C)O)C(C)C)[C@@H](C)CC)C(=O)N[C@@H](CC(=O)O)C(=O)N[C@@H](CCCNC(=N)N)C(=O)NCC` [Peptide P-28421, [N—Me-Tyr^1, D-Ala^2, Orn^12, Abu^15, Orn^21, Nle^27, Asp^28]hGHRH(1-29)NH—CH2—CH3] (H-[NMeY][dA]DAIFTNSYR[Orn]VL[Abu]QLSAR[Orn]LLQDI[Nle]DR-NHEt): in assay [2], the “Relative affinitiy” value was found to be 2.96.

Take `CCCC[C@H](NC(=O)[C@@H](NC(=O)[C@H](CC(=O)O)NC(=O)[C@H](CCC(N)=O)NC(=O)[C@H](CC(C)C)NC(=O)[C@H](CC(C)C)NC(=O)[C@H](CCCN)NC(=O)[C@H](CCCNC(=N)N)NC(=O)[C@H](C)NC(=O)[C@H](CO)NC(=O)[C@H](CC(C)C)NC(=O)[C@H](CCC(N)=O)NC(=O)[C@H](CC)NC(=O)[C@H](CC(C)C)NC(=O)[C@@H](NC(=O)[C@H](CCCN)NC(=O)[C@H](CCCNC(=N)N)NC(=O)[C@H](Cc1ccc(O)cc1)NC(=O)[C@H](CO)NC(=O)[C@H](CC(N)=O)NC(=O)[C@@H](NC(=O)[C@H](Cc1ccccc1)NC(=O)[C@@H](NC(=O)[C@H](C)NC(=O)[C@H](CC(=O)O)NC(=O)[C@H](CC)NC(=O)[C@H](Cc1ccc(O)cc1)NC)[C@@H](C)CC)[C@@H](C)O)C(C)C)[C@@H](C)CC)C(=O)N[C@@H](CO)C(=O)N[C@@H](CCCNC(=N)N)C(=O)NCCCC(N)=O` [Peptide P-25503, [N—Me-Tyr^1, Abu^2, Orn^12, Abu^15, Orn^21, Nle^27, Gab^30]hGHRH(1-30)NH2] (H-[NMeY][Abu]DAIFTNSYR[Orn]VL[Abu]QLSAR[Orn]LLQDI[Nle]SR[GABA]-NH2): the “Relative affinitiy” value in assay [2] was found to be 3.67.
